Earlier results in patent US5986061A (priority 1995, dated 1999).

T1: Hu-IFN-α/β receptor on bovine MDBK cells (Bos taurus, UniProt Q04790+Q95141)
T1 construct: endogenous in cells; host or cells: MDBK
T1 sequence (Q04790 25-560): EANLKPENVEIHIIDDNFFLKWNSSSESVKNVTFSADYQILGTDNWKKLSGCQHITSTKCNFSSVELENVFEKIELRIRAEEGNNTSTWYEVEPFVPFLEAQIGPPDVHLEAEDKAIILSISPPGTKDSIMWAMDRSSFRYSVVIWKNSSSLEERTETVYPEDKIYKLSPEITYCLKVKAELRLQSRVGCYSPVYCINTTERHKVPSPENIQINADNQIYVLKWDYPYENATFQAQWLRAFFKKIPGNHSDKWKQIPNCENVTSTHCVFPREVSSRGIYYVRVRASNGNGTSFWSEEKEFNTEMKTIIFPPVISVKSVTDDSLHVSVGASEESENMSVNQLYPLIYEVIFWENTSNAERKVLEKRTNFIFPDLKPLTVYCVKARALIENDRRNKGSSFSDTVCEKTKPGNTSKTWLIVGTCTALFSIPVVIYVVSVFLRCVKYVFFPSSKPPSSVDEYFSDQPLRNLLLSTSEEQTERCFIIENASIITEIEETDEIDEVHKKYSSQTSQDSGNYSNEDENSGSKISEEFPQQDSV
T1 sequence (Q95141 27-530): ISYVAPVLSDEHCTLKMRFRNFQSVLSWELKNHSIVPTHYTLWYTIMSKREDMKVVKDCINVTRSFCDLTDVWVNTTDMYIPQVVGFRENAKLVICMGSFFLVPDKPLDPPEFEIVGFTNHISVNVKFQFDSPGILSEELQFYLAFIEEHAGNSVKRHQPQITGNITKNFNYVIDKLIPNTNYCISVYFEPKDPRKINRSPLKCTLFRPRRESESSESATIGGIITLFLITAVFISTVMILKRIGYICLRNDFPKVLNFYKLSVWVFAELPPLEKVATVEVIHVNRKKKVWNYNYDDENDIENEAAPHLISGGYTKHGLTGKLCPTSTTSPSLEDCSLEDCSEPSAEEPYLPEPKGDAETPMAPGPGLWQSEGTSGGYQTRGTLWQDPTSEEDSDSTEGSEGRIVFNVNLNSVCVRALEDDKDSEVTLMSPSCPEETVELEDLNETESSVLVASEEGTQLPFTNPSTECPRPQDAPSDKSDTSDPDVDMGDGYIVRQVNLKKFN


What was measured:
[1] = system: vesicular stomatitis virus and bovine MDBK cells; details: literature (16, 28, 63); cited from earlier work
[2] = biological target: T1, Hu-IFN-α/β receptor on bovine MDBK cells; details: literature (16, 28, 63); cited from earlier work

Row | Molecule | antiviral activity on MDBK cell line [1] | binding to MDBK cell line [2]
1 | Hu-IFN-gamma: human immune (gamma) interferon | does not | –
2 | Hu-IFN-gamma: human immune (gamma) interferon (protein, UniProt P01579 24-161, looked up) Interferon gamma: QDPYVKEAENLKKYFNAGHSDVADNGTLFLGILKNWKEESDRKIMQSQIVSFYFKLFKNFKDDQSIQKSVETIKEDMNVKFFNSNKKKRDDFEKLTNYSVTDLNVQRKAIHELIQVMAELSPAAKTGKRKRSQMLFRG | – | does not
